{
  "source": "patent US9714424B1",
  "about": "“RNAi inhibition of USP10 to treat ocular disorders” (ICAHN SCHOOL OF MEDICINE AT MOUNT SINAI, priority 2014, dated 2017)",
  "key": {"USP10 expression": {"test_system": "USP10 expression", "experiment": "USP10 protein expression in HCFs treated with TGFβ or TGFβ inhibitor", "format": "cell-based, human", "source_text": "Porcine corneas with scleral rims were mounted on an agarose/collagen base without wounding (control corneas) or after wounding through the anterior stroma with a trephine (wounded corneas). A-H immunostaining of paraffin embedded corneal slices comparing control to 2 weeks post-wounding. Compared to control fibrotic markers increased in the anterior stroma after wounding: (A, B) α-SMA 2.9-fold+/−0.8 ***p<0.005, (C) No primary antibody control, (D, E) USP10 2.5-fold+/−0.8 **p<0.01, and F) Pre-incubation with a USP10 blocking peptide reduced immunostaining. Bar=50 um. (G) Western blot of human and porcine primary epithelial cells (Epi) and stromal cells (Fibro).\nSince TGFβ plays an important role in all wounding and fibrotic disease, we tested if TGFβ induced the expression of USP10. In the remaining cell culture studies unless otherwise noted, fibroblasts that have been passaged in serum-containing media are detached and plated on type I collagen in supplemented-serum free media (SSFM). In FIG. 4H, primary human corneal fibroblasts (HCFs) were treated with 1 ng/ml TGFβ for 2 days. TGFβ increased USP10 expression by 57% as compared to no treatment."}, "[1]": {"test_system": "αv integrins αvβ1, β3, β5", "experiment": "TGFβ activity assay, htert-SMAD reporter cells co-cultured with htert-USP10 cells, αv integrin blocking", "format": "cell-based, human", "conditions": "100 nM, compared to control small molecule CWHM96", "protocol": "TGFβ activity was measured using cell lines constitutively expressing pGreenFire Lenti-Reporter (System Biosciences) a reporter for SMAD activation. This reporter was used to generate TGFβ reporter cell lines with htert fibroblasts (htert-SMAD) and 293t cells (293t-SMAD). To assess TGFβ activity with USP10 overexpression, 50K Htert-SMAD cells were co-cultured with 50K cells constitutively overexpressing USP10 (htert-USP10) or control cells (htert cells expressing empty vector, htert-vector cells). After 24 hours, cells were removed with trypsin, pelleted, re-suspended in luciferase reagent, placed in wells in triplicate, and assayed for luciferase expression. To assess TGFβ activity when USP10 was silenced, USP10 and control siRNA were transiently transfected in 293t-SMAD cells and assayed as above. To assess TGFβ activity when av integrins were blocked, USP10 cells were treated with intergrin αv blocking small molecule or matched control small molecule and assayed as above.\nIt was previously reported that integrin αvβ5 directly activates TGFβ in myofibroblasts. […] First we confirmed that the htert-HCF line had low (undetectable) endogenous TGFβ activity so that the induction of TGFβ activity by USP10 could be quantified (data not shown). […] The next day, cells were lysed and luciferase substrate (Brightglo) was added prior to quantification of luciferase activity in each sample. […]"}},
  "data": [
    {"compound": "NC(=O)c1ccc(-c2nc(-c3ccc4c(c3)OCO4)c(-c3ccccn3)[nH]2)cc1", "note": "[SB431542]", "values": [
      {"measurement": "USP10 expression, decrease", "setting": "USP10 expression; blocking TGFβ-induced SMAD2/3 signaling", "result": 44, "unit": "%"}
    ]},
    {"compound": "TGFβ: fibrotic growth factor, added at 1 ng/ml to HCFs", "values": [
      {"measurement": "USP10 expression, increase", "setting": "USP10 expression; 1 ng/ml for 2 days, compared to no treatment", "result": 57, "unit": "%"}
    ]},
    {"compound": "CC(C)(C)c1cc(Br)cc([C@H](CC(=O)O)NC(=O)CNC(=O)c2cc(O)cc(NC3=NCC(O)CN3)c2)c1", "note": "(stereo partly drawn) [CWHM12]", "values": [
      {"measurement": "USP10-mediated TGFβ activity, reduction", "setting": "[1]", "result": 63, "unit": "%+/−6%"}
    ]}
  ]
}
